Results as given in US4620871A (priority 1980, dated 1986).

System: Bean
Assay: Stimulation of photosynthesis, 14CO2 incorporation, bean leaf discs (Example 20)
Conditions: foliar, 2 hours
Protocol: The specific radioactivities of the stock solutions were determined by liquid scintillation. In the control test untreated leaf discs were exposed to labelled carbon, dioxide, and the amount of carbon dioxide incorporated under such conditions was regarded as standard.

For `N=C(N)N.N=C(N)N.Oc1nnc(O)c2ccccc12` [1,4-dihydroxyphthalazine diguanidine salt], which activation at 200 ppm is on record?
Its activation at 200 ppm is 4%.
